Counter-ions that a name gives are not always drawn. Where no end group is shown, it is not given here.
Columns and labels:
[1] = test system: rat cultured vascular smooth muscle cells; details: cited from earlier work
[2] = test system: human cultured vascular smooth muscle cells; details: cited from earlier work
[3] = test system: neointimal proliferation after vascular injury; details: rabbit carotid artery air-drying injury; cited from earlier work

Row | melting point [°C] | Molecule | also measured
1 | 209 to 210 | CC(C)(CN)c1ccc(C(=O)NCCC2COc3ccc(C(=N)N)cc32)cc1 (stereo not shown) (as salt: salt) [Example 1c, 4-(2-Amino-1,1-dimethylethyl)-N-(2-[5-carbamimidoyl-2,3-dihydrobenzofuran-3-yl]ethyl)benzamide] | –
2 | 167 to 169 | CC(C)(C)c1ccc(C(=O)NCCC2COc3ccc(C(=N)N)cc32)cc1 (stereo not shown) (as salt: salt) [Example 1b, 4-tert-Butyl-N-(2-[5-carbamimidoyl-2,3-dihydrobenzofuran-3-yl]ethyl)benzamide] | –
3 | 52 to 56 | CCC(C)(C)c1ccc(S(=O)(=O)NCCC2COc3ccc(C(=N)N)cc32)cc1 (stereo not shown) [Example 1aar, 3-{2-[4-(1,1-Dimethylpropyl)benzenesulfonylamino]ethyl}-5-carbamimidoyl-2,3-dihydrobenzofuran] | –

Continued, molecule first:

Row | Molecule | melting point [°C] | also measured
4 | N=C(N)c1ccc2c(c1)C(CCNC(=O)c1ccc(-c3ccccn3)s1)CO2 (stereo not shown) [Example 1a, 5-(Pyridin-2-yl)-thiophene-2-carboxylic acid (2-[5-carbamimidoyl-2,3-dihydrobenzofuran-3-yl]ethyl)amide] | 54 to 56 | –
5 | TAP: TAP, cited as example that the mitogenic effect of Factor Xa depends on Factor Xa enzymatic activity (YNRLCIKPRDWIDECDSNEGGERAYFRNGKGGCDSFWICPEDHTGADYYSSYRDCFNACI; ends and bridges not checked; cysteine pairing not given here; UniProt P17726 1-60, looked up) | – | mitogenesis of cultured vascular smooth muscle cells [1]: inhibited the mitogenesis; mitogenesis of cultured vascular smooth muscle cells [2]: inhibited the mitogenesis
6 | CC(=N)N1CC[C@H](Oc2ccc([C@H](Cc3ccc4ccc(C(=N)N)cc4c3)C(=O)O)cc2)C1 [DX-9065a] | – | neointimal proliferation [3]: less neointimal proliferation
